Among the data in ChEMBL document CHEMBL1133259, “Polymethylcarborane as a novel bioactive moiety: derivatives with potent retinoid antagonistic activity” (Bioorg Med Chem Lett, 2000) are IC50 values, retold here.

The test system of the experiment is HL-60. As to the kind of experiment: Inhibitory concentration which reduces half the percentage of differentiated HL-60 cells induced by 1x 10 e-9 M Am80. In kind it is functional, cell-based. The conditions noted are these: Homo sapiens.

`CN1c2cc3c(cc2N=C(c2ccc(C(=O)O)cc2)c2ccc4ccccc4c21)C(C)(C)CCC3(C)C` gave an IC50 of 0.017 µM.
